Test results published in ChEMBL document CHEMBL4814073, “Ring-opening of five-membered heterocycles conjugated 4-isopropylresorcinol scaffold-based benzamides as HSP90 inhibitors suppressing tumor growth in vitro and in vivo” (Eur J Med Chem, 2021).

Legend:
[1] = Apparent permeability across basolateral to apical in human Caco2 cells by LC-MS/MS analysis; format: ADME, cell-based; conditions: Caco-2
[2] = test system: A549; experiment: Antiproliferative activity against human A549 cells assessed as growth inhibition incubated for 48 hrs by Sulforhodamine B assay; format: functional
[3] = test system: HCT-116; experiment: Antiproliferative activity against human HCT116 cells assessed as growth inhibition incubated for 48 hrs by Sulforhodamine B assay; format: functional
[4] = test system: Hep 3B2; experiment: Antiproliferative activity against human Hep3B cells assessed as growth inhibition incubated for 48 hrs by Sulforhodamine B assay; format: functional
[5] = test system: MDA-MB-231; experiment: Antiproliferative activity against human MDA-MB-231 cells assessed as growth inhibition incubated for 48 hrs by Sulforhodamine B assay; format: functional
[6] = Antiproliferative activity against human HUVEC cells assessed as growth inhibition incubated for 48 hrs by Sulforhodamine B assay; format: cell-based
[7] = molecular target: Heat shock protein HSP90 (Homo sapiens, UniProt P07900+P08238); experiment: Inhibition of HSP90 (unknown origin) assessed as competition of fluorescently labelled geldanamycin binding after 2 hrs by microplate reader analysis; format: protein assay
[8] = in vitro; conditions: human, HUVEC cells versus A549 cells
Description: Therapeutic index, ratio of IC50 for HUVEC cells to IC50 for human A549 cells

[9] = test system: 661W; experiment: Cytotoxicity against mouse 661W cells by MTT based vision related toxicity assay; format: cell-based

**Q.** Which permeability [1] does the source give for `COC(=O)c1ccccc1-c1c2ccc(=N)cc-2oc2cc(N)ccc12.Cl` [RHODAMINE123] here?
**A.** 8.04 10^-6 cm/s

**Q.** Which GI50 [2] does the source give for `CCN(C(=O)c1cc(C(C)C)c(O)cc1O)c1ccc2[nH]ccc2c1` here?
**A.** 110 nM

**Q.** And the GI50 [3]?
**A.** 370 nM

**Q.** And the GI50 [4]?
**A.** 110 nM

**Q.** And the GI50 [5]?
**A.** 80 nM

**Q.** And the GI50 at 48 h [6]?
**A.** < 100 nM

**Q.** And the IC50 [7]?
**A.** 117 nM

**Q.** What about the selectivity ratio [8] of the same compound?
**A.** 0.9

**Q.** For `CCN(C(=O)c1cc(C(C)C)c(O)cc1O)c1ccncc1`, which GI50 [2] is on record?
**A.** 120 nM

**Q.** And the GI50 [3]?
**A.** 640 nM

**Q.** And the GI50 [4]?
**A.** 100 nM

**Q.** And the GI50 [5]?
**A.** 80 nM

**Q.** What about the GI50 at 48 h [6] of the same compound?
**A.** < 100 nM

**Q.** What about the IC50 [7] of the same compound?
**A.** 109 nM

**Q.** And the selectivity ratio [8]?
**A.** 0.8

**Q.** For `CC(C)c1cc(C(=O)N(c2ccncc2)C(C)C)c(O)cc1O`, which GI50 [2] is on record?
**A.** 190 nM

**Q.** For `CC(C)c1cc(C(=O)N(c2ccc3[nH]ccc3c2)C(C)C)c(O)cc1O`, which GI50 [2] is on record?
**A.** 210 nM

**Q.** Which Activity [9] does the source give for `CCNC(=O)c1noc(-c2cc(C(C)C)c(O)cc2O)c1-c1ccc(CN2CCOCC2)cc1` [LUMINESPIB] here?
**A.** 0.04 µM

**Q.** With `CC(C)c1cc(C(=O)N(c2cccnc2)C(C)C)c(O)cc1O` as the compound, how does the GI50 [2] read?
**A.** 260 nM

**Q.** For `COC1=C2C[C@@H](C)C[C@H](OC)[C@H](O)[C@@H](C)/C=C(\C)[C@H](OC(N)=O)[C@@H](OC)/C=C\C=C(/C)C(=O)NC(=CC1=O)C2=O` [GELDANAMYCIN], which Activity [9] is on record?
**A.** 1.65 µM

**Q.** With `CC(C)c1cc(C(=O)N(C)c2ccc3[nH]ccc3c2)c(O)cc1O` as the compound, how does the GI50 [2] read?
**A.** 170 nM

**Q.** What about the GI50 [3] of the same compound?
**A.** 1000 nM

**Q.** What about the GI50 [4] of the same compound?
**A.** 180 nM

**Q.** And the GI50 [5]?
**A.** 70 nM

**Q.** And the GI50 at 48 h [6]?
**A.** 570 nM

**Q.** What about the IC50 [7] of the same compound?
**A.** 115 nM

**Q.** And the selectivity ratio [8]?
**A.** 3.4

**Q.** For `CCCN(C(=O)c1cc(C(C)C)c(O)cc1O)c1ccc2c(ccn2C)c1`, which GI50 [2] is on record?
**A.** 300 nM

**Q.** For `CC(C)c1cc(C(=O)Nc2cccnc2)c(O)cc1O`, which GI50 [2] is on record?
**A.** > 10000 nM

**Q.** Which GI50 [2] does the source give for `CCCN(C(=O)c1cc(C(C)C)c(O)cc1O)c1cccnc1` here?
**A.** 390 nM

**Q.** For `CC(C)c1cc(C(=O)Nc2ccc3[nH]ccc3c2)c(O)cc1O`, which GI50 [2] is on record?
**A.** > 10000 nM

**Q.** For `CC(C)c1cc(-c2n[nH]c(=O)n2-c2ccc3c(ccn3C)c2)c(O)cc1O` [GANETESPIB], which Activity [9] is on record?
**A.** > 10 µM

**Q.** With `CCN(C(=O)c1cc(C(C)C)c(O)cc1O)c1ccc2c(ccn2C)c1` as the compound, how does the GI50 [2] read?
**A.** 80 nM

**Q.** With `CCCN(C(=O)c1cc(C(C)C)c(O)cc1O)c1ccc2[nH]ccc2c1` as the compound, how does the GI50 [2] read?
**A.** 140 nM

**Q.** With `CC(C)c1cc(C(=O)Nc2ccc3c(ccn3C)c2)c(O)cc1O` as the compound, how does the GI50 [2] read?
**A.** > 10000 nM

**Q.** For `CC(C)c1cc(C(=O)Nc2ccncc2)c(O)cc1O`, which GI50 [2] is on record?
**A.** > 10000 nM

**Q.** With `CCCN(C(=O)c1cc(C(C)C)c(O)cc1O)c1ccncc1` as the compound, how does the GI50 [2] read?
**A.** 370 nM

**Q.** What does the source list for `C=CCNC1=C2C[C@@H](C)C[C@H](OC)[C@H](O)[C@@H](C)/C=C(\C)[C@H](OC(N)=O)[C@@H](OC)/C=C\C=C(/C)C(=O)NC(=CC1=O)C2=O` [TANESPIMYCIN]?
**A.** GI50 [2]: 80 nM; GI50 [3]: 340 nM; GI50 [4]: 80 nM; GI50 [5]: 270 nM; GI50 at 48 h [6]: < 100 nM; Activity [9]: > 10 µM

**Q.** Which results are given for `CC(C)c1cc(C(=O)N(C)c2ccc3c(ccn3C)c2)c(O)cc1O`?
**A.** GI50 [2]: 280 nM; GI50 [3]: 700 nM; GI50 [4]: 570 nM; GI50 [5]: 100 nM; GI50 at 48 h [6]: 820 nM; IC50 [7]: 106 nM; selectivity ratio [8]: 2.9

**Q.** For `COc1c(C)cnc(Cn2cnc3c(Cl)nc(N)nc32)c1C` [BIIB021], which GI50 [4] is on record?
**A.** 240 nM

**Q.** And the GI50 [5]?
**A.** 240 nM

**Q.** And the GI50 at 48 h [6]?
**A.** 1420 nM

**Q.** And the Activity [9]?
**A.** > 10 µM
